Where two headings read alike, the source gives them in different places.
Tests used:
[1] = Signal intensity from first echo of spin echo sequence (TE=30 ms, TR=500 ms); assay type: physicochemical
Protocol: (§1) Samples of Gd2O3-DEG from Example 1 (with an average particle size of about 5 nm and a particle size range from about 1 to 15 nm) and Gd-DTPA (Magnevist®) were prepared in 10 mm NMR test tubes with H2O at 9 different Gd concentrations from […]. At measurement the test tubes were immersed in a bowl with saline at 22-23° C., which was the temperature of the scanner room.
(§2) T1 and T2 relaxation times were measured with a 1.5 T Philips Achieva whole body scanner using the head coil. A 2D mixed multi-echo SE interleaved with multi-echo IR sequence was used for the measurements [kleef_mrm—1987]. Imaging time parameters were varied to minimise the standard deviations in relaxation time calculations: TE=30 ms, TR (SE)=500 ms, TI=150 ms, and TR (IR)=1150 ms (set 1); TE=50 ms, TR (SE)=760 ms, TI=370 ms, and TR (IR)=2290 ms (set 2). Other MR parameters were: FOV=23 cm, slice thickness=7 mm, number of echoes=4.
At higher concentrations (>0.9 mM) the strong T2 effect attenuated the signal for the nanoparticle samples. That is, the Gd2O3 sample reached the signal intensity peak at lower concentrations (0.6 mM) compared to the Gd-DTPA signal intensity that peaked at approximately 1.2 mM in this sequence.
In addition, samples of Gd2O3-DEG and Resovist® were prepared and tested under the same conditions as above. There were 6 different Gd and Fe concentrations between 0.1 and 1.5 mM. […]

[2] = Relaxation time measurements (T1, T2 relaxivity) in H2O, 1.5 T scanner; assay type: physicochemical; details: 22-23° C.
Protocol: as §1, §2
In addition, samples of Gd2O3-DEG and Resovist® were prepared and tested under the same conditions as above. There were 6 different Gd and Fe concentrations between 0.1 and 1.5 mM. Resovist® is based on ferrocarbotran colloidal sol of superparamagnetic iron oxide nanoparticles (SPIO). The particles have a hydrodynamic diameter of 60 nm on an iron core of 4 nm. […] Accordingly, Gd2O3-DEG particles enable a contrast agent with complementary properties to those based on SPIO.

THP-1 cells = test: Monocyte studies: incubation, washing, T1/T2 measurement; assay type: cell-based; details: 0.1-0.9 mM Gd, 2 h or 8 h at 37° C., washed twice
Protocol: For monocyte experiments, THP-1 cells were cultured in RPMI 1640 medium with 10% fetal calf serum (GIBCO, Invitrogen, Carlsbad, Calif., USA) with additions of L-glutamate and penicillin/streptomycin solution (Invitrogen). Cells were counted and found 97% viable. Cells were treated with Gd2O3-DEG or Gd-DTPA in concentrations 0.1, 0.3, 0.6, and 0.9 mM. Cells of one well were left untreated. A control series was prepared of cell culture medium only with the different concentrations of Gd2O3-DEG particles. Two plates of 24 wells each were prepared as described above; one was incubated with the Gd2O3-DEG and Gd-DTPA for 2 h and the other one for 8 h at 37° C. After incubation cells were transferred to Falcon tubes and washed twice with medium and centrifugated for 8 minutes at 1100 rpm.

[3] = Magnevist 0.1 mmol/kg, cited from earlier work

O=C([O-])CN(CCN(CC(=O)[O-])CC(=O)O)CCN(CC(=O)[O-])CC(=O)O.[Gd+3] [Gd-DTPA]
Gd concentration at signal intensity peak [1]: approximately 1.2 mM
r1 relaxivity constant [2]: 4.86 ± 0.08 mM⁻¹ s⁻¹
r2 relaxivity constant [2]: 5.53 ± 0.14 mM⁻¹ s⁻¹
Presence with cells after the washing procedure (THP-1 cells): not present in the cell suspension after the washing
detected plasma concentration of Gd ([3]; 3 minutes after injection): 0.6 mM
detected plasma concentration of Gd ([3]; 60 minutes after injection): 0.24 mM
